The target in one series is T1, dipeptidyl peptidase IV (Rattus norvegicus, UniProt P14740).
T1 construct: partially purified from rat kidney homogenate by ammonium sulfate fractionation; from tissue; host or cells: rat kidney
As to the kind of experiment: biochemical. Conditions: glycyl·prolyl·β-naphthylamide, pH 7.2, 37° C., 1 hour, read-out: Dipeptidyl peptidase IV 50% inhibition activity value (converted).

Series [1] deals with ICR strain male mice (Crj:CD-1). As to the kind of experiment: Test for evaluating efficacy in drug-induced leukopenia (cyclophosphamide). It counts as in vivo. The settings on record: for number of leukocytes: cyclophosphamide 200 mg/kg i.p. Day 0. The method, then: The efficacy of the compound of Example 1 in drug-induced leukopenia was evaluated according to the method of Okabe et al. (Yakuri to Chiryo (Pharmacology and Treatment), Vol. 19, No. 6, p. 55, 1991).
ICR strain male mice (Crj:CD-1) aged 8 weeks were used in the test. The animals were divided into three groups of 3 or 4 animals each. On Day 0, cyclophosphamide was intraperitoneally administered once to all the groups in a dose of 200 mg/kg. From the next day, the following were intravenously and repeatedly administered to the groups, respectively, for 5 days (Days 1 to 5); a first group (a control group): physiological saline, a second group: the compound of Example 1 (30 mg/kg/day), and a third group: the compound of Example 1 (100 mg/kg/day). Blood was drawn from the orbital vein on Day 0 (before the administration of cyclophosphamide) and Days 2, 4, 6, 8 and 10, and the number of leukocytes was periodically measured to investigate the leukocyte-increasing effect of the compound of Example 1 on leukopenia induced by cyclophosphamide.

Series [2] has the same test system. As to the kind of experiment: Test for investigating the increase of leukocytes and the decrease of platelets in normal mice. In kind it is in vivo. Conditions: for Number of platelets / number of leukocytes: blood drawn day after last administration. The method, then:
ICR strain male mice (Crj:CD-1) aged 8 weeks were used in the test. The animals were divided into 5 groups of 3 to 4 animals each. The following were intravenously and repeatedly administered to the groups, respectively, for 5 days; a first group: physiological saline as solvent, a second group: the compound of Example 45 (hydrochloride of the compound of Example 1) (10 mg/kg/day), a third group: the compound of Example 45 (50 mg/kg/day), a fourth group: the compound of Example 45 (250 mg/kg/day), and a fifth group: sulphostin (WO 99/25719 and JP-A-2000-327689; (3S, PR)-3-amino-1-amino(sulfoamino)phosphinyl-2-piperidone) (50 mg/kg/day). On the day subsequent to the last day in the administration period, blood was drawn from the abdominal aorta under anesthesia and the number of leukocytes and the number of platelets were measured.

Where [3] appears, read: normal mice, 10 mg/kg/day i.v. for 5 days.
The mark [4] stands for this setting: normal mice, 50 mg/kg/day i.v. for 5 days.
Setting [5] is: normal mice, 250 mg/kg/day i.v. for 5 days.

T1 sequence (P14740 whole entry): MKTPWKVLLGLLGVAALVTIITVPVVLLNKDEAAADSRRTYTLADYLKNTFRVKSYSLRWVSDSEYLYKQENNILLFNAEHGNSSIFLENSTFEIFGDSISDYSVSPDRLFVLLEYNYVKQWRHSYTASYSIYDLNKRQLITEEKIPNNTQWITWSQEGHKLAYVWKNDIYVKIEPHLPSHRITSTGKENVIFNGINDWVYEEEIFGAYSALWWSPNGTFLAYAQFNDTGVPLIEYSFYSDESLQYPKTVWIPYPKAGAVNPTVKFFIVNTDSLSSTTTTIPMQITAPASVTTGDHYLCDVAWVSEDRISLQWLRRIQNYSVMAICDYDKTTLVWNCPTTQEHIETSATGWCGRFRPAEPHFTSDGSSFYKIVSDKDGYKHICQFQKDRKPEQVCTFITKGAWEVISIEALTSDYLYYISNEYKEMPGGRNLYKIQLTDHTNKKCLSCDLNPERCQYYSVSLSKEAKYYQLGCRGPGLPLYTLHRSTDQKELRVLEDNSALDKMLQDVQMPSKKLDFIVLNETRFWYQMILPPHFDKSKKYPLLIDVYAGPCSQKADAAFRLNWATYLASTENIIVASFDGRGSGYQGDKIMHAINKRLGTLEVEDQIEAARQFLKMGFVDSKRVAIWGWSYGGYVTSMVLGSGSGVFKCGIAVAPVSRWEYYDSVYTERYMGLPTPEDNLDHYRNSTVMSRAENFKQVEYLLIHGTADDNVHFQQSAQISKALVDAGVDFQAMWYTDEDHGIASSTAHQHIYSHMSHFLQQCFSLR

With `N[C@H]1CCCN(P(N)(N)=O)C1=O` [Example 1, (3S)-3-amino-1-diaminophosphinyl-2-piperidone], the IC50 on dipeptidyl peptidase IV was 0.0885 µM. The number of leukocytes in series [1] (30 mg/kg/day i.v. Days 1 to 5, Day 0 (before cyclophosphamide)) is listed as 33 ± 7.8 ×100/millimeter cube; in series [1] (30 mg/kg/day i.v. Days 1 to 5, Day 2) it was 23 ± 14.2 ×100/millimeter cube; in series [1] (30 mg/kg/day i.v. Days 1 to 5, Day 4), 7 ± 1.8 ×100/millimeter cube; in series [1] (30 mg/kg/day i.v. Days 1 to 5, Day 6), 25 ± 6.2 ×100/millimeter cube; in series [1] (30 mg/kg/day i.v. Days 1 to 5, Day 8), 108 ± 52.8 ×100/millimeter cube; in series [1] (30 mg/kg/day i.v. Days 1 to 5, Day 10) it was 58 ± 16.1 ×100/millimeter cube. Further, the number of leukocytes in series [1] (100 mg/kg/day i.v. Days 1 to 5, Day 0 (before cyclophosphamide)) was 81 ± 38.7 ×100/millimeter cube; in series [1] (100 mg/kg/day i.v. Days 1 to 5, Day 2) it was 25 ± 8.3 ×100/millimeter cube; in series [1] (100 mg/kg/day i.v. Days 1 to 5, Day 4) it was 13 ± 6.8 ×100/millimeter cube; in series [1] (100 mg/kg/day i.v. Days 1 to 5, Day 6) it was 124 ± 144.2 ×100/millimeter cube; in series [1] (100 mg/kg/day i.v. Days 1 to 5, Day 8) it was 139 ± 36.7 ×100/millimeter cube; in series [1] (100 mg/kg/day i.v. Days 1 to 5, Day 10) it was 49 ± 7.3 ×100/millimeter cube. Moreover, the “number of leukocytes relative to Day 0” value in series [1] (30 mg/kg/day, Day 0) is 100%; in series [1] (30 mg/kg/day, Day 2) it was 70%; in series [1] (30 mg/kg/day, Day 4), 21%; in series [1] (30 mg/kg/day, Day 6) it was 76%; in series [1] (30 mg/kg/day, Day 8), 327%; in series [1] (30 mg/kg/day, Day 10), 176%. The “number of leukocytes relative to Day 0” value in series [1] (100 mg/kg/day, Day 0) was found to be 100%; in series [1] (100 mg/kg/day, Day 2), 31%; in series [1] (100 mg/kg/day, Day 4) it was 16%; in series [1] (100 mg/kg/day, Day 6) it was 153%; in series [1] (100 mg/kg/day, Day 8), 172%; in series [1] (100 mg/kg/day, Day 10), 60%. For the same compound, the “effect in increasing the number of leukocytes (in words)” value in series [1] (data on Day 8) is reported as “very effective in increasing the number of leukocytes”. In addition, in series [1] (groups treated with 30 and 100 mg/kg/day, control group requires 8 days), the “recovery of the number of leukocytes to the initial value after the administration of cyclophosphamide” value is 6 days.
As to `Cl.N[C@H]1CCCN(P(N)(N)=O)C1=O` [Example 45, (3S)-3-amino-1-diaminophosphinyl-2-piperidone hydrochloride], the “factor by which the number of leukocytes is larger than that of the control group” value is reported as 4.2 in series [2] (10 mg/kg/day group), 3.8 in series [2] (50 mg/kg/day group) and 6.7 in series [2] (250 mg/kg/day group). Also, the Number of platelets in series [2] (setting [3]) is 76.0 ± 7.8 ×10000/millimeter cube; in series [2] (setting [4]), 84.9 ± 8.3 ×10000/millimeter cube; in series [2] (setting [5]) it was 81.1 ± 8.0 ×10000/millimeter cube. In addition, the number of leukocytes was 25 ± 13 ×100/millimeter cube in series [2] (setting [3]), 23 ± 19 ×100/millimeter cube in series [2] (setting [4]) and 40 ± 18 ×100/millimeter cube in series [2] (setting [5]). The “influence on the number of platelets (in words)” value in series [2] (normal mice, all the groups (10, 50, 250 mg/kg/day)) is listed as “did not decrease the number of platelets”.
`N[C@H]1CCCN([P@@](N)(=O)NS(=O)(=O)O)C1=O` [sulphostin, (3S, PR)-3-amino-1-amino(sulfoamino)phosphinyl-2-piperidone, reference compound]: the “number of platelets as compared with the control group” value in series [2] (50 mg/kg/day, decreased) is reported as 73%. Also, in series [2] (setting [4]), the Number of platelets is on record as 57.1 ± 5.1 ×10000/millimeter cube and the number of leukocytes is 15 ± 5 ×100/millimeter cube.
